Data published in ChEMBL document CHEMBL4304772, “Synthesis, in vitro biological evaluation and in silico studies of certain arylnicotinic acids conjugated with aryl (thio)semicarbazides as a novel class of anti-leishmanial agents” (Eur J Med Chem, 2019).
Activity calls are given as the source filed them. The calls are words filed in the database; no cut-off is given here.

Experiments:
Leishmania major [1] = experiment: Reversible inhibition of DHFR-TS/PTR1 in Leishmania major promastigote form in presence of excess folic acid
Leishmania major [2] = experiment: Antileishmanial activity against Leishmania major promastigotes measured after 24 hrs by alamar blue staining based fluorescence assay; assay type: functional, organism-based
[3] = Selectivity index, ratio of CC50 for African green monkey Vero cells to IC50 for leishmania major promastigote; assay type: toxicity; conditions: read-out: Ratio CC50/IC50
[4] = Cytotoxicity against African green monkey Vero cells after 72 hrs by crystal violet staining based assay; assay type: cell-based; conditions: chlorocebus sabaeus
Leishmania major [5] = experiment: Potency index, ratio of miltefosine IC50 for Leishmania major amastigote form to compound IC50 for Leishmania major amastigote form; assay type: functional
Leishmania major [6] = experiment: Antileishmanial activity against Leishmania major amastigotes measured after 72 hrs by resazurin dye based fluorescence assay; assay type: functional, organism-based
Leishmania major [7] = experiment: Inhibition of DHFR-TS/PTR1 in Leishmania major promastigote form assessed as parasite survival at 4.5 uM measured after 48 hrs in presence of 100 uM of folic acid relative to control
Leishmania major [8] = experiment: Inhibition of DHFR-TS/PTR1 in Leishmania major promastigote form assessed as parasite survival at 4.5 uM measured after 48 hrs relative to control
Leishmania major [9] = experiment: Inhibition of DHFR-TS/PTR1 in Leishmania major promastigote form assessed as parasite survival at 4.5 uM measured after 48 hrs in presence of 20 uM folic acid relative to control
Leishmania major [10] = experiment: Antileishmanial activity against Leishmania major promastigote form assessed as parasite survival at 4.5 uM measured after 48 hrs in presence of 20 uM of folinic acid relative to control; assay type: functional
Leishmania major [11] = experiment: Antileishmanial activity against Leishmania major promastigote form assessed as parasite survival at 4.5 uM measured after 48 hrs in presence of 100 uM of folinic acid relative to control; assay type: functional
Leishmania major [12] = experiment: Antileishmanial activity against Leishmania major promastigote form assessed as parasite survival at 5.9 uM measured after 48 hrs in presence of 100 uM folinic acid relative to control; assay type: functional
Leishmania major [13] = experiment: Antileishmanial activity against Leishmania major promastigote form assessed as parasite survival at 5.9 uM measured after 48 hrs in presence of 20 uM folinic acid relative to control; assay type: functional
Leishmania major [14] = experiment: Inhibition of DHFR-TS/PTR1 in Leishmania major promastigote form assessed as parasite survival at 5.9 uM measured after 48 hrs in presence of 100 uM folic acid relative to control
Leishmania major [15] = experiment: Inhibition of DHFR-TS/PTR1 in Leishmania major promastigote form assessed as parasite survival at 5.9 uM measured after 48 hrs relative to control
Leishmania major [16] = experiment: Inhibition of DHFR-TS/PTR1 in Leishmania major promastigote form assessed as parasite survival at 5.9 uM measured after 48 hrs in presence of 20 uM folic acid relative to control
Leishmania major [17] = conditions: 100 uM
Description: Inhibition of DHFR-TS/PTR1 in Leishmania major promastigote form assessed as parasite survival at 100 uM measured after 48 hrs relative to control

Leishmania major [18] = conditions: 100 uM; remark: listed apart in the source
Description: Inhibition of DHFR-TS/PTR1 in Leishmania major promastigote form assessed as parasite survival at 100 uM measured after 48 hrs in presence of 100 uM folic acid relative to control

Row | Compound | reversible inhibition (active/inactive) (Leishmania major [1]) | IC50 (Leishmania major [2]) [µM] | other results
1 | COc1ccc(-c2ccc(C(=O)NNC(=S)Nc3ccc(C)cc3)c(C)n2)cc1OC | Active | 10.2 | –
2 | COc1cc(-c2ccc(C(=O)NNC(=O)Nc3ccc(Cl)cc3)c(C)n2)cc(OC)c1OC | Active | 23.9 | –
3 | COc1cc(-c2ccc(C(=O)NNC(=S)Nc3ccc(C)cc3)c(C)n2)cc(OC)c1OC | Active | 6.1 | selectivity ratio [3]: 94.2; CC50 at 72 h [4]: 574 µM; Ratio IC50 (Leishmania major [5]): 1.2 - 2.2; IC50 (Leishmania major [6]): 5.8 µM
4 | COc1ccc(-c2ccc(C(=O)NNC(=O)Nc3ccccc3)c(C)n2)cc1OC | Active | 16.7 | –
5 | COc1ccc(-c2ccc(C(=O)NNC(=O)Nc3ccccc3)c(C)n2)cc1 | Active | 18.6 | –
6 | COc1ccc(NC(=O)NNC(=O)c2ccc(-c3cc(OC)c(OC)c(OC)c3)nc2C)cc1 | Active | 22.5 | –
7 | COc1ccc(-c2ccc(C(=O)NNC(=S)Nc3ccccc3)c(C)n2)cc1OC | Active | 9.2 | –
8 | COc1cc(-c2ccc(C(=O)NNC(=S)Nc3ccc(Cl)cc3)c(C)n2)cc(OC)c1OC | Active | 4.3 | Survival (Leishmania major [7]): 87%; selectivity ratio [3]: 122; CC50 at 72 h [4]: 523 µM; Ratio IC50 (Leishmania major [5]): 1.2 - 2.2; Survival (Leishmania major [8]): 23%; Survival (Leishmania major [9]): 78%; Survival (Leishmania major [10]): 81%; Survival (Leishmania major [11]): 93%; IC50 (Leishmania major [6]): 3.3 µM
9 | COc1cc(-c2ccc(C(=O)NNC(=O)Nc3ccccc3)c(C)n2)cc(OC)c1OC | Active | 19.8 | –
10 | COc1cc(-c2ccc(C(=O)NNC(=S)Nc3ccccc3)c(C)n2)cc(OC)c1OC | Active | 5.7 | Survival (Leishmania major [12]): 88%; selectivity ratio [3]: 90.1; CC50 at 72 h [4]: 513 µM; Survival (Leishmania major [13]): 75%; Survival (Leishmania major [14]): 84%; Ratio IC50 (Leishmania major [5]): 1.2 - 2.2; Survival (Leishmania major [15]): 25%; Survival (Leishmania major [16]): 72%; IC50 (Leishmania major [6]): 4.2 µM
11 | CCCCCCCCCCCCCCCCOP(=O)([O-])OCC[N+](C)(C)C [MILTEFOSINE] | – | 7.6 | IC50 (Leishmania major [6]): 7.3 µM
12 | COc1ccc(NC(=O)NNC(=O)c2ccc(-c3ccc(OC)c(OC)c3)nc2C)cc1 | Active | 19.7 | –
13 | COc1ccc(NC(=S)NNC(=O)c2ccc(-c3cc(OC)c(OC)c(OC)c3)nc2C)cc1 | Active | 5.8 | selectivity ratio [3]: 87.2; CC50 at 72 h [4]: 506 µM; Ratio IC50 (Leishmania major [5]): 1.2 - 2.2; IC50 (Leishmania major [6]): 5.9 µM
14 | COc1ccc(-c2ccc(C(=O)NNC(=S)Nc3ccc(Cl)cc3)c(C)n2)cc1OC | Active | 17.4 | –
15 | COc1cc(Cc2cnc(N)nc2N)cc(OC)c1OC | Active | – | Survival (Leishmania major [17]): 69%; Survival (Leishmania major [18]): 99%
16 | COc1ccc(-c2ccc(C(=O)NNC(=O)Nc3ccc(Cl)cc3)c(C)n2)cc1OC | Active | 18.8 | –

Now from value to compound, other results behind:

Row | reversible inhibition (active/inactive) (Leishmania major [1]) | Compound | IC50 (Leishmania major [2]) [µM] | other results
17 | Active | COc1ccc(NC(=O)NNC(=O)c2ccc(-c3ccc(OC)cc3)nc2C)cc1 | 20 | –
18 | Active | COc1ccc(-c2ccc(C(=O)NNC(=O)Nc3ccc(Cl)cc3)c(C)n2)cc1 | 21.9 | –
19 | Active | COc1ccc(-c2ccc(C(=O)NNC(=S)Nc3ccc(Cl)cc3)c(C)n2)cc1 | 16.7 | –
20 | Active | COc1ccc(NC(=S)NNC(=O)c2ccc(-c3ccc(OC)c(OC)c3)nc2C)cc1 | 6.4 | selectivity ratio [3]: 98.8; CC50 at 72 h [4]: 632 µM; Ratio IC50 (Leishmania major [5]): 1.2 - 2.2; IC50 (Leishmania major [6]): 4.8 µM
21 | Active | COc1ccc(-c2ccc(C(=O)NNC(=S)Nc3ccc(C)cc3)c(C)n2)cc1 | 10.7 | Ratio IC50 (Leishmania major [5]): 1.2 - 2.2
22 | Active | COc1ccc(NC(=S)NNC(=O)c2ccc(-c3ccc(OC)cc3)nc2C)cc1 | 11.4 | –
23 | Active | COc1ccc(-c2ccc(C(=O)NNC(=S)Nc3ccccc3)c(C)n2)cc1 | 12 | –
